In patent US6737383B1, “Herbicidal oxadiazolidines” (priority 1999, dated 2004):

Tests used:
sugar beet = assay: Test B pre/postemergence sugar beet; type: in vivo, Beta vulgaris
Procedure, shortened: (§1)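 Test chemicals in a non-phytotoxic solvent mixture with surfactant were sprayed preemergence onto planted seeds and postemergence onto plants 2 to 18 cm tall (1- to 4-leaf stage). After twelve to sixteen days in a greenhouse, injury was visually rated against untreated controls from 0 (no effect) to 10 (complete control).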

blackgrass = assay: Test B pre/postemergence blackgrass; type: in vivo, Alopecurus myosuroides
Procedure, shortened: as §1

bedstraw = assay: Test B pre/postemergence bedstraw; type: in vivo, Galium aparine; settings: Preemergence, Rate 62 g/ha; scale 0 to 10 (0 no effect, 10 complete control)
Procedure, shortened: as §1

corn = assay: Test B pre/postemergence corn; type: in vivo, Zea mays
Procedure, shortened: as §1

surinam grass = assay: Test B pre/postemergence surinam grass; type: in vivo, Brachiaria decumbens
Procedure, shortened: as §1

wheat = assay: Test B pre/postemergence wheat; type: in vivo, Triticum aestivum
Procedure, shortened: as §1

rape = assay: Test B pre/postemergence rape; type: in vivo, Brassica napus
Procedure, shortened: as §1

bamyardgrass = assay: Test B flood test barnyardgrass; type: in vivo, Echinochloa crus-galli
Procedure, shortened: (§2)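 Flood test on plants grown to the 2-leaf stage; treated plants kept in greenhouse twelve to sixteen days, then visually rated against controls on a 0 (no effect) to 10 (complete control) scale.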

duck salad = assay: Test B flood test duck salad; type: in vivo, Heteranthera limosa
Procedure, shortened: as §2

soybean = assay: Test B pre/postemergence soybean; type: in vivo, Glycine max
Procedure, shortened: as §1

crabgrass = assay: Test B pre/postemergence crabgrass; type: in vivo, Digitaria sanguinalis
Procedure, shortened: as §1

wild oat = assay: Test B pre/postemergence wild oat; type: in vivo, Avena fatua
Procedure, shortened: as §1

giant foxtail = assay: Test B pre/postemergence giant foxtail; type: in vivo, Setaria faberii
Procedure, shortened: as §1

pigweed = assay: Test B pre/postemergence pigweed; type: in vivo, Amaranthus retroflexus
Procedure, shortened: as §1

rice = assay: Test B flood test rice; type: in vivo, Oryza sativa
Procedure, shortened: as §2

cocklebur = assay: Test B pre/postemergence cocklebur; type: in vivo, Xanthium strumarium
Procedure, shortened: as §1

purple nutsedge = assay: Test B pre/postemergence purple nutsedge; type: in vivo, Cyperus rotundus
Procedure, shortened: as §1

velvetleaf = assay: Test B pre/postemergence velvetleaf; type: in vivo, Abutilon theophrasti
Procedure, shortened: as §1

morningglory = assay: Test B pre/postemergence morningglory; type: in vivo, Ipomoea hederacea
Procedure, shortened: as §1

smallflower flatsedge = assay: Test B flood test smallflower flatsedge; type: in vivo, Cyperus difformis
Procedure, shortened: as §2

[1] = Postemergence, Rate 125 g/ha, scale of 0 to 10 where 0 is no effect and 10 is complete control
[2] = Postemergence, Rate 250 g/ha, scale of 0 to 10, 0 is no effect, 10 is complete control
[3] = Postemergence, Rate 500 g/ha, scale of 0 to 10 where 0 is no effect and 10 is complete control
[4] = Preemergence, Rate 62 g/ha, scale 0 to 10 (0 no effect, 10 complete control)
[5] = Preemergence, Rate 125 g/ha, scale of 0 to 10 where 0 is no effect and 10 is complete control
[6] = Preemergence, Rate 500 g/ha, scale of 0 to 10 where 0 is no effect and 10 is complete control
[7] = Postemergence, Rate 62 g/ha, scale of 0 to 10, 0 is no effect, 10 is complete control
[8] = Rate 62 g/ha, flood test species, Pre-emergence, visual evaluation after twelve to sixteen days
[9] = Rate 125 g/ha, under heading Pre-emergence, flood test species, visual evaluation after twelve to sixteen days
[10] = Rate 250 g/ha, Pre-emergence (flood test species), scale 0 to 10, 0 is no effect, 10 is complete control
[11] = Rate 500 g/ha, Pre-emergence section of Table B, 0 to 10 scale (0 no effect, 10 complete control)

CCc1nc(C)c(C(C)n2c(=O)on(C(=O)N(c3ccc(Cl)cc3)C(C)C)c2=O)s1 (stereo not drawn) [Compound 590]
Plant response rating, Sugarbeets (sugar beet; [1]): 0 | Sugarbeets plant response rating (sugar beet; [2]): 0 | Plant response rating, Sugarbeets (sugar beet; [3]): 0 | Sugarbeets plant response rating (sugar beet; [4]): 0 | Sugarbeets plant response rating (sugar beet; [5]): 0 | Sugarbeets plant response rating (sugar beet; [6]): 0 | Blackgrass plant response rating (blackgrass; [7]): 0 | Plant response rating, Blackgrass (blackgrass; [1]): 0 | Blackgrass plant response rating (blackgrass; [2]): 0 | Plant response rating, Blackgrass (blackgrass; [3]): 0 | Blackgrass plant response rating (blackgrass; [4]): 0 | Blackgrass plant response rating (blackgrass; [5]): 0 | Blackgrass plant response rating (0 to 10 scale) (blackgrass; Preemergence, Rate 250 g/ha): 0 | Blackgrass plant response rating (blackgrass; [6]): 0 | Bedstraw plant response rating (bedstraw): 0 | Corn plant response rating (corn; [7]): 0 | Plant response rating, Corn (corn; [1]): 0 | Corn plant response rating (corn; [2]): 0 | Plant response rating, Corn (corn; [3]): 0 | Corn plant response rating (corn; [4]): 0 | Corn plant response rating (corn; [5]): 0 | Corn plant response rating (0 to 10 scale) (corn; Preemergence, Rate 250 g/ha): 0 | Corn plant response rating (corn; [6]): 0 | B. signalgrass plant response rating (surinam grass; [7]): 0 | Plant response rating, B. signalgrass (surinam grass; [1]): 0 | B. signalgrass plant response rating (surinam grass; [2]): 0 | Plant response rating, B. signalgrass (surinam grass; [3]): 0 | B. signalgrass plant response rating (surinam grass; [4]): 0 | B. signalgrass plant response rating (surinam grass; [5]): 0 | B. signalgrass plant response rating (0 to 10 scale, 0 is no effect, 10 is complete control) (surinam grass; Preemergence, Rate 250 g/ha): 0 | B. signalgrass plant response rating (surinam grass; [6]): 0 | Plant response rating, Wheat (wheat; [1]): 0 | Wheat plant response rating (wheat; [2]): 0 | Plant response rating, Wheat (wheat; [3]): 0 | Wheat plant response rating (wheat; [4]): 0 | Wheat plant response rating (wheat; [5]): 0 | Wheat plant response rating (wheat; [6]): 0 | Rape plant response rating (rape; [7]): 0 | Plant response rating, Rape (rape; [1]): 0 | Rape plant response rating (rape; [2]): 0 | Plant response rating, Rape (rape; [3]): 0 | Rape plant response rating (rape; [4]): 0 | Rape plant response rating (rape; [5]): 0 | Rape plant response rating (rape; [6]): 0 | Plant response rating, Barnyardgrass (0 to 10 scale, 0 is no effect, 10 is complete control) (bamyardgrass; [8]): 0 | Barnyardgrass plant response rating (0 to 10 scale, 0 is no effect, 10 is complete control) (bamyardgrass; [9]): 0 | Barnyardgrass plant response rating (bamyardgrass; [10]): 0 | Barnyardgrass plant response rating (bamyardgrass; [11]): 0 | Plant response rating, Ducksalad (0 to 10 scale, 0 is no effect, 10 is complete control) (duck salad; [8]): 0 | Ducksalad plant response rating (0 to 10 scale, 0 is no effect, 10 is complete control) (duck salad; [9]): 0 | Ducksalad plant response rating (duck salad; [10]): 0 | Ducksalad plant response rating (duck salad; [11]): 0 | Plant response rating, Soybean (soybean; [1]): 1 | Soybean plant response rating (soybean; [2]): 3 | Plant response rating, Soybean (soybean; [3]): 3 | Soybean plant response rating (soybean; [4]): 0 | Soybean plant response rating (soybean; [5]): 0 | Soybean plant response rating (soybean; [6]): 0 | Crabgrass plant response rating (crabgrass; [7]): 0 | Plant response rating, Crabgrass (crabgrass; [1]): 0 | Crabgrass plant response rating (crabgrass; [2]): 0 | Plant response rating, Crabgrass (crabgrass; [3]): 2 | Crabgrass plant response rating (crabgrass; [4]): 0 | Crabgrass plant response rating (crabgrass; [5]): 0 | Crabgrass plant response rating (crabgrass; [6]): 3 | Plant response rating, Wild oats (wild oat; [1]): 0 | Wild oats plant response rating (wild oat; [2]): 0 | Plant response rating, Wild oats (wild oat; [3]): 0 | Wild oats plant response rating (wild oat; [4]): 0 | Wild oats plant response rating (wild oat; [5]): 0 | Wild oats plant response rating (wild oat; [6]): 0 | Giant foxtail plant response rating (giant foxtail; [7]): 0 | Plant response rating, Giant foxtail (giant foxtail; [1]): 0 | Giant foxtail plant response rating (giant foxtail; [2]): 0 | Plant response rating, Giant foxtail (giant foxtail; [3]): 0 | Giant foxtail plant response rating (giant foxtail; [4]): 0 | Giant foxtail plant response rating (giant foxtail; [5]): 0 | Giant foxtail plant response rating (giant foxtail; [6]): 7 | Plant response rating, Redroot pigweed (pigweed; [1]): 0 | Redroot pigweed plant response rating (pigweed; [2]): 0 | Plant response rating, Redroot pigweed (pigweed; [3]): 0 | Redroot pigweed plant response rating (pigweed; [4]): 0 | Redroot pigweed plant response rating (pigweed; [5]): 0 | Redroot pigweed plant response rating (pigweed; [6]): 0 | Plant response rating, Rice (0 to 10 scale, 0 is no effect, 10 is complete control) (rice; [8]): 0 | Rice plant response rating (0 to 10 scale, 0 is no effect, 10 is complete control) (rice; [9]): 0 | Rice plant response rating (rice; [10]): 0 | Rice plant response rating (rice; [11]): 0 | Cocklebur plant response rating (cocklebur; [7]): 0 | Plant response rating, Cocklebur (cocklebur; [1]): 0 | Cocklebur plant response rating (cocklebur; [2]): 0 | Plant response rating, Cocklebur (cocklebur; [3]): 0 | Cocklebur plant response rating (cocklebur; [4]): 0 | Cocklebur plant response rating (cocklebur; [5]): 0 | Cocklebur plant response rating (0 to 10 scale) (cocklebur; Preemergence, Rate 250 g/ha): 0 | Cocklebur plant response rating (cocklebur; [6]): 0 | Nutsedge plant response rating (purple nutsedge; [7]): 0 | Plant response rating, Nutsedge (purple nutsedge; [1]): 0 | Nutsedge plant response rating (purple nutsedge; [2]): 0 | Plant response rating, Nutsedge (purple nutsedge; [3]): 0 | Nutsedge plant response rating (purple nutsedge; [4]): 0 | Nutsedge plant response rating (purple nutsedge; [5]): 0 | Nutsedge plant response rating (purple nutsedge; [6]): 0 | Plant response rating, Velvetleaf (velvetleaf; [1]): 0 | Velvetleaf plant response rating (velvetleaf; [2]): 2 | Plant response rating, Velvetleaf (velvetleaf; [3]): 2 | Velvetleaf plant response rating (velvetleaf; [4]): 0 | Velvetleaf plant response rating (velvetleaf; [5]): 0 | Velvetleaf plant response rating (velvetleaf; [6]): 0 | Morningglory plant response rating (morningglory; [7]): 2 | Plant response rating, Morningglory (morningglory; [1]): 3 | Morningglory plant response rating (morningglory; [2]): 3 | Plant response rating, Morningglory (morningglory; [3]): 4 | Morningglory plant response rating (morningglory; [4]): 0 | Morningglory plant response rating (morningglory; [5]): 0 | Morningglory plant response rating (morningglory; [6]): 0 | Plant response rating, S. Flatsedge (0 to 10 scale, 0 is no effect, 10 is complete control) (smallflower flatsedge; [8]): 0 | S. Flatsedge plant response rating (0 to 10 scale, 0 is no effect, 10 is complete control) (smallflower flatsedge; [9]): 0 | S. Flatsedge plant response rating (smallflower flatsedge; [10]): 0 | S. Flatsedge plant response rating (smallflower flatsedge; [11]): 0
